Test results as given in patent EP2065031A1, “Skin treatment composition” (Evonik Goldschmidt GmbH, priority 2007, dated 2009).

Legend:
[1] = solubility of arjunolic acid in water, cosmetic oils and solvents; format: physicochemical
From the text: Skin is subject to deterioration through the passage of time (chronological aging, dermatological disorders, hormonal changes, environmental abuse (wind, air conditioning, central heating, pollution) all of which may be accelerated by exposure of skin to radiation from the sun (photoaging). Chronological aging and photoaging is summarized under the term aging. Consumers are increasingly seeking cosmetic products which treat or delay the visible signs of aging skin such as wrinkles, lines, loss of elasticity, uneven skin tone, dry skin, sagging, hyperpigmentation and age spots. There continues to be a need, however, for alternative effective cosmetic compositions for topical application to skin for treating and delaying skin aging. […] This effect be boosted by combinations with at least one additional active selected from the group of anti-aging, anti-inflammatory, anti-cellulite, moisturization, skin barrier improving, anti-wrinkle, firming, soothing or calming active ingredients. As described above arjunolic acid is poorly soluble in common solvents: It is insoluble in water and poorly soluble in cosmetic oils like mineral oil, isopropyl myristate or other ester oils or cosmetic solvents like propylene glycol or glycerol. The solubility of arjunolic acid in propylene glycol is only 0.6%; in ispropylmyristate, mineral oil and glycerin less than 0.1% arjunolic acid are soluble. This leads to the problem that it is very difficult to keep a sufficient amount of arjunolic acid solubilized in the cosmetic preparation without crystallization.

TSP1 = TSP1 expression in reconstructed human epidermis (RHE) skin models, real time RT-PCR; format: cell-based; conditions: 50 µl aqueous formulation containing 0.325% arjunolic acid, 48 hours, versus formulation without arjunolic acid, read-out: increased expression of TSP1
Procedure: Since thrombospondin 1 (TSP1) has been described by Murphy-Ullrich et al. 2000, Cytokine & Growth Factor Reviews; 11: 59-69 as one of the most important endogenous activators of TGF-β1 we investigated the effect of arjunolic acid on TSP1 expression in reconstructed human epidermis (RHE) skin models.
For this purpose RHE skin models (SkinEthic laboratories, Nice, France) were incubated with 50 µl of the test formulation (aqueous arjunolic acid formulation containing 0.325% arjunolic acid, 3% Glyceryl Stearate, 3% Ceteareth-20, 1% Stearyl Alcohol, 4% Cetearyl Ethylhexanoate/Isopropylmyristate and 4% Caprylic/Capric Triglyceride) in a humidified atmosphere containing 5 % CO2 for 48 hours. Then cell culture supernatants were removed and skin models were immediately transferred into a 2 ml reaction tube containing 1,5 ml RNAlater RNA stabilisation reagent (#76104, Qiagen, Hilden, Germany) to avoid RNA degradation. Controls received formulation without arjunolic acid only. […] Real time RT-PCR analysis was performed to quantify expression of TSP1. […] Results were analysed with SDS 2.0 software (Applied Biosystems). Relative quantification was performed according to the delta-delta-Ct method with 18s ribosomal RNA (18s rRNA) used as a house keeping gene.

skin [2] = assay: transepidermal water loss (Tewameter) in volunteers; format: in vivo, human; conditions: formulation with 0.1625% arjunolic acid versus carrier, twice daily, 4 weeks, left inner forearm, figure 1
From the text: (§1) For the study 30 volunteers were recruited. 15 volunteers got the test formulation with 0.1625% arjunolic acid, 15 got the formulation without active ingredient (carrier). They applied the test formulation twice daily over a period of 4 weeks on the left inner forearm. A Tewameter (TM 300, Courage & Khazaka, Cologne, D) was used to determine the transepidermal water loss. A corneometer (CM825, Courage & Khazaka, Cologne, D) was used to determine the skin hydration. The measurements were performed before the application started and after 4 weeks. Before the measurement started the panelists had to climatize in a climatic room at 21-22°C and 50% relative humidity for at least 15 min.

skin [3] = assay: skin hydration (corneometer) in volunteers; format: in vivo, human; conditions: formulation with 0.1625% arjunolic acid, twice daily, 4 weeks, left inner forearm, figure 2
From the text: as §1

skin [4] = assay: skin elasticity (Cutometer) in volunteers; format: in vivo, human; conditions: formulation containing 0.1625% arjunolic acid, twice daily, 8 weeks, left inner forearm
Procedure: Method: For this study 30 volunteers were recruited. 15 volunteers got the test formulation with 0.1625% arjunolic acid, 15 got the formulation without active ingredient (carrier). They applied the test formulation twice daily over a period of 8 weeks on the left inner forearm.
The skin elasticity was assessed with a Cutometer MPA 580 (Courage & Khazaka, Cologne, D) which measures the vertical deformation of the skin when sucked into the loop of a measuring probe and reversed into its original condition. From the stretching/release cycles different parameters describing the skin elasticity were calculated. The parameter R1 describes the remaining deformation after the first stretching cycle while R5 is known as netto elasticity (R5 = UR/UE).
For the stretching a vacuum of 450 mbar was kept for 5s, the relaxing time was also 5s. The measurement was carried out after a climatization of the volunteers at room temperature and 50 % relative humidity for at least 15 min. before the treatment started and after 8 weeks of application.

skin [5] = assay: skin scaliness (Visioscan camera) in volunteers; format: in vivo, human; conditions: 0.25% arjunolic acid in the formulation as printed, versus carrier, twice daily, 4 weeks, left inner forearm, figure 5
Procedure: For this study 30 volunteers were recruited. […] They applied the test formulation twice daily over a period of 4 weeks on the left inner forearm. The measurement was carried out after an acclimatization of the volunteers at room temperature and 50 % relative humidity before the treatment started and after 4 weeks of application.
For the evaluation of the skin scaliness a special camera (Visioscan VC 98, Courage & Khazaka, Cologne, D) was used. […] The picture taken with this camera is converted into a digital signal with 256 grey levels. Via the grey level distribution the software calculates the skin scaliness.

[6] = system: human skin fibroblast cells; conditions: incubation of human skin fibroblast cells with 6.25 mg/mL arjunolic acid; cited from earlier work
skin [7] = conditions: moisturizer containing arjunolic acid, volunteers; cited from earlier work

- solubility in glycerin ([1]; glycerin): less than 0.1%
- solubility in ispropylmyristate ([1]; ispropylmyristate): less than 0.1%
- solubility in mineral oil ([1]; mineral oil): less than 0.1%
- solubility in propylene glycol ([1]; propylene glycol): 0.6%
- solubility in water ([1]; water): insoluble
Compound: CC1(C)CC[C@]2(C(=O)O)CC[C@]3(C)C(=CC[C@@H]4[C@@]5(C)C[C@@H](O)[C@H](O)[C@@](C)(CO)[C@@H]5CC[C@]43C)[C@@H]2C1 [arjunolic acid, 2a,3b,23-trihydroxyolean-12-en-28-oic acid]
- fold induction at 0.325 % (TSP1): ~10
- transepidermal water loss (TEWL) (skin [2]): improves skin barrier
- skin hydration (skin [3]): increases skin hydration significantly
- R1, the remaining deformation after the first stretching cycle (skin [4]; figure 3): improved significantly
- R5, the netto elasticity (skin [4]; figure 4): improved significantly
- reduction of the scaliness (skin [5]): improved further
- collagen formation [6]: 30.9 ng/mg
- anti-wrinkle effects (skin [7]): good anti-wrinkle effects
